According to patent US12077503B2, “Substituted cyclic amides and their use as herbicides” (FMC CORPORATION, priority 2015, dated 2024):
Where two headings read alike, the source gives them in different places.

What was measured:
[1] = test system: pigweed (Amaranthus retroflexus); assay: Test A preemergence; type: in vivo; settings: Amaranthus retroflexus, pre-emergence, 240 h; for pest or weed control at 125 g/ha: 125 g ai/ha; for pest or weed control at 500 g/ha: 500 g ai/ha
[2] = test system: ragweed (common ragweed, Ambrosia elatior); assay: Test A preemergence; type: in vivo; settings: Ambrosia artemisiifolia, pre-emergence, 240 h; for pest or weed control at 125 g/ha: 125 g ai/ha; for pest or weed control at 500 g/ha: 500 g ai/ha
Procedure, shortened: (§1)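 Treatment is preemergence as a directed soil spray after planting, or postemergence at the one- to two-leaf stage, with test chemical in a non-phytotoxic solvent mixture plus surfactant. Plants stay in the greenhouse about 10 d before visual injury scoring on a 0 to 100 scale versus untreated controls.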

[3] = test system: giant foxtail (Setaria faberii); assay: Test A preemergence; type: in vivo; settings: Setaria faberi, pre-emergence, 240 h; for pest or weed control at 125 g/ha: 125 g ai/ha; for pest or weed control at 500 g/ha: 500 g ai/ha
Procedure, shortened: as §1

Kochia (Kochia scoparia) = assay: Test A preemergence; type: in vivo; settings: Bassia scoparia, pre-emergence, 240 h; for pest or weed control at 125 g/ha: 125 g ai/ha; for pest or weed control at 500 g/ha: 500 g ai/ha
Procedure, shortened: as §1

[4] = test system: ryegrass, Italian (Italian ryegrass, Lolium multiflorum); assay: Test A preemergence; type: in vivo; settings: Lolium multiflorum, pre-emergence, 240 h; for pest or weed control at 125 g/ha: 125 g ai/ha; for pest or weed control at 500 g/ha: 500 g ai/ha
Procedure, shortened: as §1

[5] = test system: barnyardgrass (Echinochloa crus-galli); assay: Test A preemergence; type: in vivo; settings: Echinochloa crus-galli, pre-emergence, 240 h; for pest or weed control at 125 g/ha: 125 g ai/ha; for pest or weed control at 500 g/ha: 500 g ai/ha
Procedure, shortened: as §1

[6] = preemergence, visual rating after approx. 10 d, 0 to 100 scale where 0 is no effect and 100 is complete control, read-out: Plant response rating, Pigweed
[7] = preemergence, visual rating after approx. 10 d, 0 to 100 scale where 0 is no effect and 100 is complete control, read-out: Plant response rating, Ragweed
[8] = preemergence, visual rating after approx. 10 d, 0 to 100 scale where 0 is no effect and 100 is complete control, read-out: Plant response rating, Foxtail, Giant
[9] = preemergence, visual rating after approx. 10 d, 0 to 100 scale where 0 is no effect and 100 is complete control, read-out: Plant response rating, Kochia
[10] = preemergence, visual rating after approx. 10 d, 0 to 100 scale where 0 is no effect and 100 is complete control, read-out: Plant response rating, Ryegrass, Italian
[11] = preemergence, visual rating after approx. 10 d, 0 to 100 scale where 0 is no effect and 100 is complete control, read-out: Plant response rating, Barnyardgrass
[12] = preemergence, visual injury rating, 0 to 100 scale where 0 is no effect and 100 is complete control, approximately 10 d, read-out: Pigweed plant response rating
[13] = preemergence, 0 to 100 scale where 0 is no effect and 100 is complete control, read-out: Pigweed plant response rating
[14] = preemergence, visual injury rating, 0 to 100 scale where 0 is no effect and 100 is complete control, approximately 10 d, read-out: Ragweed plant response rating
[15] = preemergence, 0 to 100 scale where 0 is no effect and 100 is complete control, read-out: Ragweed plant response rating
[16] = preemergence, visual injury rating, 0 to 100 scale where 0 is no effect and 100 is complete control, approximately 10 d, read-out: Foxtail, Giant plant response rating
[17] = preemergence, 0 to 100 scale where 0 is no effect and 100 is complete control, read-out: Foxtail, Giant plant response rating
[18] = preemergence, visual injury rating, 0 to 100 scale where 0 is no effect and 100 is complete control, approximately 10 d, read-out: Kochia plant response rating
[19] = preemergence, 0 to 100 scale where 0 is no effect and 100 is complete control, read-out: Kochia plant response rating
[20] = preemergence, visual injury rating, 0 to 100 scale where 0 is no effect and 100 is complete control, approximately 10 d, read-out: Ryegrass, Italian plant response rating
[21] = preemergence, 0 to 100 scale where 0 is no effect and 100 is complete control, read-out: Ryegrass, Italian plant response rating
[22] = preemergence, visual injury rating, 0 to 100 scale where 0 is no effect and 100 is complete control, approximately 10 d, read-out: Barnyardgrass plant response rating
[23] = preemergence, 0 to 100 scale where 0 is no effect and 100 is complete control, read-out: Barnyardgrass plant response rating
[24] = preemergence, 0 to 100 scale (0 no effect, 100 complete control), read-out: Plant response rating, Pigweed
[25] = Preemergence, 0 to 100 scale (0 no effect, 100 complete control), read-out: Plant response rating, Pigweed
[26] = preemergence, 0 to 100 scale (0 no effect, 100 complete control), read-out: Plant response rating, Ragweed
[27] = Preemergence, 0 to 100 scale (0 no effect, 100 complete control), read-out: Plant response rating, Ragweed
[28] = preemergence, 0 to 100 scale (0 no effect, 100 complete control), read-out: Plant response rating, Foxtail, Giant
[29] = Preemergence, 0 to 100 scale (0 no effect, 100 complete control), read-out: Plant response rating, Foxtail, Giant
[30] = preemergence, 0 to 100 scale (0 no effect, 100 complete control), read-out: Plant response rating, Kochia
[31] = Preemergence, 0 to 100 scale (0 no effect, 100 complete control), read-out: Plant response rating, Kochia
[32] = preemergence, 0 to 100 scale (0 no effect, 100 complete control), read-out: Plant response rating, Ryegrass, Italian
[33] = Preemergence, 0 to 100 scale (0 no effect, 100 complete control), read-out: Plant response rating, Ryegrass, Italian
[34] = preemergence, 0 to 100 scale (0 no effect, 100 complete control), read-out: Plant response rating, Barnyardgrass
[35] = Preemergence, 0 to 100 scale (0 no effect, 100 complete control), read-out: Plant response rating, Barnyardgrass

In the case of CN1C[C@H](c2ccc(C(F)(F)F)cc2)[C@@H](C(=O)Nc2ccccc2C(F)(F)F)C1=O [Compound 726], the pest or weed control at 125 g/ha [1, 6] is reported as 80%, the pest or weed control at 500 g/ha ([1]; preemergence, 0 to 100 scale, 0 = no effect, 100 = complete control, read-out: Plant response rating, Pigweed) is reported as 90% and the pest or weed control at 125 g/ha [2, 7] is reported as 30%. It also gave a pest or weed control at 500 g/ha ([2]; preemergence, 0 to 100 scale, 0 = no effect, 100 = complete control, read-out: Plant response rating, Ragweed) of 50%, a pest or weed control at 125 g/ha [3, 8] of 90% and a pest or weed control at 500 g/ha ([3]; preemergence, 0 to 100 scale, 0 = no effect, 100 = complete control, read-out: Plant response rating, Foxtail, Giant) of 90%. The pest or weed control at 125 g/ha (Kochia (Kochia scoparia); [9]) was 70%, the pest or weed control at 500 g/ha (Kochia (Kochia scoparia); preemergence, 0 to 100 scale, 0 = no effect, 100 = complete control, read-out: Plant response rating, Kochia) was 90% and the pest or weed control at 125 g/ha [4, 10] was 50%. The pest or weed control at 500 g/ha ([4]; preemergence, 0 to 100 scale, 0 = no effect, 100 = complete control, read-out: Plant response rating, Ryegrass, Italian) was 80%, the pest or weed control at 125 g/ha [5, 11] was 90% and the pest or weed control at 500 g/ha ([5]; preemergence, 0 to 100 scale, 0 = no effect, 100 = complete control, read-out: Plant response rating, Barnyardgrass) was 90%. The melting point was 108 to 111 °C.
C/C=C/C1CNC(=O)C1C(=O)Nc1cccc(F)c1F (stereo not drawn) [Compound 793] showed a pest or weed control at 125 g/ha [1, 6] of 0%, a pest or weed control at 31 g/ha ([1]; Preemergence, 31 g ai/ha, 0 to 100 scale (0 no effect, 100 complete control), read-out: Plant response rating, Pigweed) of 0% and a pest or weed control at 125 g/ha [2, 7] of 0%. For the same compound, the pest or weed control at 31 g/ha ([2]; Preemergence, 31 g ai/ha, 0 to 100 scale (0 no effect, 100 complete control), read-out: Plant response rating, Ragweed) was 0%, the pest or weed control at 125 g/ha [3, 8] was 0% and the pest or weed control at 31 g/ha ([3]; Preemergence, 31 g ai/ha, 0 to 100 scale (0 no effect, 100 complete control), read-out: Plant response rating, Foxtail, Giant) was 0%. It also gave a pest or weed control at 125 g/ha (Kochia (Kochia scoparia); [9]) of 0%, a pest or weed control at 31 g/ha (Kochia (Kochia scoparia); Preemergence, 31 g ai/ha, 0 to 100 scale (0 no effect, 100 complete control), read-out: Plant response rating, Kochia) of 0% and a pest or weed control at 125 g/ha [4, 10] of 0%. For the same compound, the pest or weed control at 31 g/ha ([4]; Preemergence, 31 g ai/ha, 0 to 100 scale (0 no effect, 100 complete control), read-out: Plant response rating, Ryegrass, Italian) was 0%, the pest or weed control at 125 g/ha [5, 11] was 0% and the pest or weed control at 31 g/ha ([5]; Preemergence, 31 g ai/ha, 0 to 100 scale (0 no effect, 100 complete control), read-out: Plant response rating, Barnyardgrass) was 0%. It also gave a melting point of 151 to 155 °C.
For CN1C[C@H](c2ccc(C(F)(F)F)cc2)[C@@H](C(=O)Nc2cccc(Cl)c2F)C1=O [Compound 1238], the pest or weed control at 125 g/ha [1, 12] was 0%, the pest or weed control at 500 g/ha [1, 13] was 60% and the pest or weed control at 125 g/ha [2, 14] was 0%. The pest or weed control at 500 g/ha [2, 15] was 50%, the pest or weed control at 125 g/ha [3, 16] was 90% and the pest or weed control at 500 g/ha [3, 17] was 90%. The pest or weed control at 125 g/ha (Kochia (Kochia scoparia); [18]) was 60%, the pest or weed control at 500 g/ha (Kochia (Kochia scoparia); [19]) was 60% and the pest or weed control at 125 g/ha [4, 20] was 0%. It also gave a pest or weed control at 500 g/ha [4, 21] of 50%, a pest or weed control at 125 g/ha [5, 22] of 80% and a pest or weed control at 500 g/ha [5, 23] of 90%. The melting point was 138 to 141 °C.
Work on CN1CC(c2cccc(OCC=C(Cl)Cl)c2)C(C(=O)Nc2cccc(F)c2F)C1=O (stereo not drawn) [Compound 1303] yielded a pest or weed control at 125 g/ha [1, 12] of 0%, a pest or weed control at 500 g/ha [1, 13] of 30% and a pest or weed control at 125 g/ha [2, 14] of 0%. The pest or weed control at 500 g/ha [2, 15] was 0%, the pest or weed control at 125 g/ha [3, 16] was 40% and the pest or weed control at 500 g/ha [3, 17] was 90%. The pest or weed control at 125 g/ha (Kochia (Kochia scoparia); [18]) was 0%, the pest or weed control at 500 g/ha (Kochia (Kochia scoparia); [19]) was 0% and the pest or weed control at 125 g/ha [4, 20] was 0%. It also gave a pest or weed control at 500 g/ha [4, 21] of 0%, a pest or weed control at 125 g/ha [5, 22] of 0% and a pest or weed control at 500 g/ha [5, 23] of 30%. For the same compound, the melting point was 124 to 127 °C.
With Cc1ccc([C@H]2CN(C)C(=O)[C@@H]2C(=O)Nc2ccc(F)c(F)c2F)cc1 [Compound 1378] the pest or weed control at 500 g/ha [1, 24] was 70%, the pest or weed control at 125 g/ha [1, 25] was 70% and the pest or weed control at 500 g/ha [2, 26] was 90%. The pest or weed control at 125 g/ha [2, 27] was 50%, the pest or weed control at 500 g/ha [3, 28] was 90% and the pest or weed control at 125 g/ha [3, 29] was 90%. It also gave a pest or weed control at 500 g/ha (Kochia (Kochia scoparia); [30]) of 90%, a pest or weed control at 125 g/ha (Kochia (Kochia scoparia); [31]) of 80% and a pest or weed control at 500 g/ha [4, 32] of 90%. The pest or weed control at 125 g/ha [4, 33] was 80%, the pest or weed control at 500 g/ha [5, 34] was 90% and the pest or weed control at 125 g/ha [5, 35] was 90%. It also gave a melting point of 101.6 to 102.3 °C.
Work on O=C1NC[C@H](c2cnc(C(F)(F)F)nc2)[C@H]1C(=O)Nc1cccc(F)c1F [Compound 1382] yielded a pest or weed control at 500 g/ha [1, 24] of 20%, a pest or weed control at 125 g/ha [1, 25] of 20% and a pest or weed control at 500 g/ha [2, 26] of 0%. The pest or weed control at 125 g/ha [2, 27] was 0%, the pest or weed control at 500 g/ha [3, 28] was 90% and the pest or weed control at 125 g/ha [3, 29] was 0%. The pest or weed control at 500 g/ha (Kochia (Kochia scoparia); [30]) was 60%, the pest or weed control at 125 g/ha (Kochia (Kochia scoparia); [31]) was 0% and the pest or weed control at 500 g/ha [4, 32] was 0%. The pest or weed control at 125 g/ha [4, 33] was 0%, the pest or weed control at 500 g/ha [5, 34] was 70% and the pest or weed control at 125 g/ha [5, 35] was 0%. The melting point was 170 to 173 °C.
